Measured values from patent publication US20230266302A1, “SYNTHESIS AND USE OF N-BENZYL SULFONAMIDES” (THE UNIVERSITY OF TULSA, priority 2020, published 2023).

How the values were obtained:
Assay in all cases: ATP level assay (CellTiter-Glo), percent of control
Assay type in all cases: cell-based
H293 (kidney cancer) = conditions: two hour incubation; for activity at 100 µM: 2 h, compound alone, control DMSO, read-out: POC (percent of control) H293
HeLa (cervical cancer) = conditions: two hour incubation; for activity at 100 µM: Homo sapiens, HeLa, 2 h, compound alone, control DMSO, read-out: POC (percent of control) HeLa
NCI-H196 (lung cancer) = conditions: two hour incubation; for activity at 100 µM: NCI-H196, 2 h, compound alone, control DMSO, read-out: POC (percent of control) NCI-H196
[1] = system: MCF10A (non-cancerous breast); conditions: two hour incubation; for activity at 100 µM: Homo sapiens, MCF-10A, 2 h, compound alone, control DMSO, read-out: POC (percent of control) MCF10A
SkBr3 (breast cancer) = conditions: two hour incubation; for activity at 100 µM: Homo sapiens, SK-BR-3, 2 h, compound alone, control DMSO, read-out: POC (percent of control) SkBr3
MDA-MB (breast cancer) = conditions: two hour incubation; for activity at 100 µM: 2 h, compound alone, control DMSO, read-out: POC (percent of control) MDA-MB
[2] = system: BxPC3 (pancreatic cancer); conditions: two hour incubation; for activity at 100 µM: Homo sapiens, BXPC-3, 2 h, compound alone, control DMSO, read-out: POC (percent of control) BxPC3
PC3 (prostate cancer) = conditions: two hour incubation; for activity at 100 µM: 2 h, compound alone, control DMSO, read-out: POC (percent of control) PC3
T47D (breast cancer) = conditions: two hour incubation; for activity at 100 µM: Homo sapiens, T47D, 2 h, compound alone, control DMSO, read-out: POC (percent of control) T47D
MCF7 (breast cancer) = conditions: two hour incubation; for activity at 100 µM: Homo sapiens, MCF7, 2 h, compound alone, control DMSO, read-out: POC (percent of control) MCF7
HDF (normal cells) = conditions: two hour incubation; for activity at 100 µM: 2 h, compound alone, control DMSO, read-out: POC (percent of control) HDF
[3] = compound 100 uM + 2DG (about 10-20 mM)
[4] = compound 100 uM + rotenone (approximately 1.25 μM)

Structure (SMILES)	activity at 100 µM (H293 (kidney cancer)) [%]	POC (percent of control) H293 (H293 (kidney cancer); [3])	POC (percent of control) H293 (H293 (kidney cancer); [4])	activity at 100 µM (HeLa (cervical cancer)) [%]	POC (percent of control) HeLa (HeLa (cervical cancer); [3])	POC (percent of control) HeLa (HeLa (cervical cancer); [4])	activity at 100 µM (NCI-H196 (lung cancer)) [%]	POC (percent of control) NCI-H196 (NCI-H196 (lung cancer); [3])	POC (percent of control) NCI-H196 (NCI-H196 (lung cancer); [4])	activity at 100 µM [1] [%]	POC (percent of control) MCF10A [1, 3]	POC (percent of control) MCF10A [1, 4]	activity at 100 µM (SkBr3 (breast cancer)) [%]	POC (percent of control) SkBr3 (SkBr3 (breast cancer); [3])	POC (percent of control) SkBr3 (SkBr3 (breast cancer); [4])	activity at 100 µM (MDA-MB (breast cancer)) [%]	POC (percent of control) MDA-MB (MDA-MB (breast cancer); [3])	POC (percent of control) MDA-MB (MDA-MB (breast cancer); [4])	activity at 100 µM [2] [%]	POC (percent of control) BxPC3 [2, 3]	also measured
O=S(=O)(NCc1cscn1)c1ccc(Cl)cc1 [Compound 18, 4-chloro-N-(1,3-thiazol-4-ylmethyl)benzenesulfonamide]	67.3	96.3% of control	67.4% of control	99.5	100% of control	97.3% of control	97.4	108.3% of control	87.3% of control	119	92.2% of control	86.9% of control	112	107.2% of control	96.6% of control	102	86.1% of control	100% of control	100	85.4% of control	POC (percent of control) BxPC3 [2, 4]: 94.3% of control; activity at 100 µM (PC3 (prostate cancer)): 74%; POC (percent of control) PC3 (PC3 (prostate cancer); [3]): 94% of control; POC (percent of control) PC3 (PC3 (prostate cancer); [4]): 97.2% of control; activity at 100 µM (T47D (breast cancer)): 95.7%; POC (percent of control) T47D (T47D (breast cancer); [3]): 82.8% of control; POC (percent of control) T47D (T47D (breast cancer); [4]): 100.6% of control; activity at 100 µM (MCF7 (breast cancer)): 110%; POC (percent of control) MCF7 (MCF7 (breast cancer); [3]): 137.3% of control; POC (percent of control) MCF7 (MCF7 (breast cancer); [4]): 82% of control; activity at 100 µM (HDF (normal cells)): 96.1%; POC (percent of control) HDF (HDF (normal cells); [3]): 93% of control; POC (percent of control) HDF (HDF (normal cells); [4]): 95.7% of control
O=S(=O)(NCc1ccco1)c1ccc(Cl)cc1 [Compound 20, 4-chloro-N-(furan-2-ylmethyl)benzenesulfonamide]	104	84.4% of control	69.4% of control	103	91.7% of control	117.2% of control	100	90.6% of control	102.1% of control	102	78.1% of control	102.9% of control	104	96.7% of control	102.5% of control	97.4	82.9% of control	98.5% of control	95.8	86.4% of control	POC (percent of control) BxPC3 [2, 4]: 94.8% of control; activity at 100 µM (PC3 (prostate cancer)): 91.1%; POC (percent of control) PC3 (PC3 (prostate cancer); [3]): 83.8% of control; POC (percent of control) PC3 (PC3 (prostate cancer); [4]): 100.4% of control; activity at 100 µM (T47D (breast cancer)): 73.9%; POC (percent of control) T47D (T47D (breast cancer); [3]): 69.7% of control; POC (percent of control) T47D (T47D (breast cancer); [4]): 101.6% of control; activity at 100 µM (MCF7 (breast cancer)): 138%; POC (percent of control) MCF7 (MCF7 (breast cancer); [3]): 87.3% of control; POC (percent of control) MCF7 (MCF7 (breast cancer); [4]): 124.6% of control; activity at 100 µM (HDF (normal cells)): 90.9%; POC (percent of control) HDF (HDF (normal cells); [3]): 88.1% of control; POC (percent of control) HDF (HDF (normal cells); [4]): 103.1% of control
